The text below walks through data of PubChem BioAssay (NCI).

Assay in all cases: NCI anticancer screen, dose series, 48 h
The test system of experiment [1] is NCI-H522 lung.
For experiment [2], the system named is DLD-1 colon.
In experiment [3] the test system is MALME-3M melanoma.
Experiment [4] has as its system NCI-H226 lung.
Experiment [5] concerns RXF 393 renal.
Experiment [6] has as its system XF 498 CNS.
Experiment [7] concerns DMS 273 small cell lung.
Experiment [8] deals with HOP-18 NSCLC.
The test system of experiment [9] is HOP-62 NSCLC.
The subject of experiment [10] is RPMI-8226 leukemia.
The test system of experiment [11] is DU-145 prostate.
For experiment [12], the system named is T-47D breast.
Experiment [13] relates to MDA-N.
In experiment [14] the test system is NCI/ADR-RES ovarian.
Experiment [15] relates to BT-549 breast.
The test system of experiment [16] is HS 578T breast.
In experiment [17] the test system is UACC-257 melanoma.
In experiment [18] the test system is SNB-75 CNS.
For experiment [19], the system named is PC-3 prostate.
Experiment [20] deals with SF-295 CNS.

Molecules are shown by their SMILES.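 Protocol summary: plate cells (96-well), add compound at 5 concentrations, incubate 48 h, interpolate endpoints linearly. At the TGI there is no net growth.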 Where only a bound is given, the exact number is not on record here.

`NNc1nnc(-c2ccccc2)nc1Cc1ccccc1`: the TGI in experiment [1] was above 100 µM; in experiment [2], above 100 µM; in experiment [3] it was 26.3 µM; in experiment [4] it was 6.43 µM; in [5] it was above 100 µM; in experiment [6], 79.3 µM. For the same compound, the TGI in [7] was above 100 µM; in experiment [8], 7.25 µM; in experiment [9], 9.45 µM.
Take `C/C(=N\NC(=O)c1ccncc1)c1cccc(C(F)(F)F)c1`: the TGI in experiment [10], in experiment [3], in experiment [11], in experiment [12], in [13] and in [4] was above 10 µM throughout. Further, the TGI in experiment [14], in [15], in [16], in experiment [17], in experiment [18] and in experiment [9] was above 10 µM in each case.
`CCOC(=O)NC(OCc1ccccc1)(C(=O)OC)C(F)(F)F` (stereo not drawn): the TGI in experiment [1], in experiment [10], in [19], in experiment [11], in experiment [12] and in experiment [13] was above 100 µM in each case. Moreover, the TGI in [20], in experiment [5], in [14], in [15], in experiment [16] and in experiment [17] was above 100 µM throughout.
